{"source": "patent US10399959B2", "about": "“Acid-addition salt of Trk-inhibiting compound” (ONO PHARMACEUTICAL CO., LTD., priority 2014, dated 2019)", "key": {"[1]": {"test": "Test regarding solubility in artificial intestinal juice (FaSSIF)", "type": "physicochemical", "settings": "after lapsing 0.25 hours; for solubility / solubility at 0.25 h: artificial intestinal juice (FaSSIF); for solubility / solubility per free base: 37° C.; for solubility at 0.25 h: 37 °C, fassif, thermodynamic from solid", "description": "About 5 mg of the present compound was weighed in a test tube, a stirrer and 5 mL of an artificial intestinal juice (FaSSIF; Reference 1: Pharmaceutical Research, Vol. 20, pp. 1674-1680, 2003, and Reference 2: Biological & Pharmaceutical Bulletin, Vol. 34, pp. 401-407, 2011) were added in the test tube, and the test tube was then hermetically sealed. The test tube was placed in a solubility test apparatus (Gilson, Quad-Z 215), and stirring was performed at 37° C. and 700 rpm. A part of the liquid in the test tube was collected after lapsing 0.25, 0.5, 1, 3, 6, and 24 hours, respectively. The collected liquid was filtered with a filter, and the filtrate was diluted to 2-fold with acetonitrile. The diluted liquid was centrifuged at 3,000 rpm for 5 minutes. A supernatant after centrifugation was used as a sample solution and calculated for solubility by means of high-performance liquid chromatography.\nHigh-Performance Liquid Chromatography Measurement Conditions"}, "[2]": {"system": "rat NGF-induced vascular hyper permeability", "test": "Inhibiting effect of rat NGF-induced vascular hyper permeability", "type": "in vivo", "settings": "1 mg/kg oral (as free base)", "description": "TrkA-inhibiting activity of the present compound was evaluated in vivo. The present compound dissolved in a medium was orally administered (adminstered volume: 5 mL/kg) to male CD(SD)IGS rats (7- to 9-week old, Charles River Laboratories Japan, Inc.) shaved on the back. A medium was orally administered (adminstered volume: 5 mL/kg) to the control and normal groups. After 12 or 14 hours of administration, 3 μg/mL of an NGF (Mouse 2.5s, Natural, Invitrogen) solution prepared in 0.1% BSA (Sigma-Aldrich)-containing saline was intracutaneously administered (adminstered volume; 50 μL/site) at 3 sites on the back of animals under halothane anesthesia. For the normal group, 0.1% BSA-containing saline was intracutaneously administered (adminstered volume; 50 μL/site) at 3 sites on the back. Immediately after intracutaneous administration, 1% Evans Blue (Tokyo Chemical Industriy Co., Ltd.) dissolved in saline was administered intravenously from tail (adminstered volume: 3 mL/kg). After 10 minutes of administration, the animals were sacrificed by bleeding due to incision of the abdominal aorta. The sites of intracutaneous administration on the back (3 sites) were excised, and the skin samples were respectively transferred to the wells in a 48-well plate (Asahi Glass Co., Ltd.). […] The formamide extraction solution (200 μL) was transferred to a 96-well plate, and the absorbance (wavelength: 620 nm) of Evans Blue extracted in formamide was measured on an absorbance microplate reader (SpectraMAX 190, Molecular Devices Japan, K.K.). Standard samples of Evans Blue dissolved in formamide (0, 0.78, 1.56, 3.13, 6.25, 12.5, 25, and 50 μg/mL) were measured at the same time for the absorbance (wavelength: 620 nm), thereby preparing a calibration curve. Based on the calibration curve and the absorbances of the respective samples, the concentrations of Evans Blue in each sample was calculated. […] The rate of inhibition for rat NGF-induced vascular hyper permeability of the present compound was calculated according to the following Equation 4. […]"}, "[3]": {"system": "sodium monoiodoacetate-induced model rats", "test": "Analgesic effect on sodium monoiodoacetate-induced model rats", "type": "in vivo, rat", "settings": "MIA rats, day 24"}, "[4]": {"settings": "FaSSIF, salt value converted to the corresponding free base, Methanesulfonate"}, "[5]": {"settings": "as the substance itself (salt or free base), Methanesulfonate"}, "[6]": {"settings": "14 hours before administration of NGF"}, "[7]": {"settings": "present compound oral twice a day over 10 days, then 3 hours before measurement, dose (0.1, 0.3 or 1 mg/kg) not given"}, "[8]": {"settings": "FaSSIF, salt value converted to the corresponding free base, read-out: solubility per free base"}}, "note": "Like-named read-outs stand apart in the source and are kept apart here.", "data": [{"smiles": "CS(=O)(=O)c1ccc(C(F)(F)F)cc1NC(=O)Nc1cnc(Oc2ccc(-c3cc(Cl)cnc3N)cc2)nc1", "note": "[Compound (I), 1-{2-[4-(2-amino-5-chloro-3-pyridinyl)phenoxy]-5-pyrimidinyl}-3-[2-(methylsulfonyl)-5-(trifluoromethyl)phenyl]urea]", "values": [{"measurement": "solubility", "setting": "[1]; as the substance itself (salt or free base)", "value": 0.007, "unit": "mg/mL"}]}, {"smiles": "Nc1ncc(Cl)cc1-c1ccc(Oc2ncc(NC(=O)Nc3cc(C(F)(F)F)ccc3-n3cccn3)cn2)cc1", "note": "[methanesulfonate of Compound (III), 1-(2-(1H-pyrazol-1-yl)-5-(trifluoromethyl)phenyl)-3-(2-(4-(2-amino-5-chloropyridin-3-yl)phenoxy)pyrimidin-5-yl)urea Methanesulfonate]", "values": [{"measurement": "solubility per free base", "setting": "[1]; [4]", "value": 0.045, "unit": "mg/mL"}, {"measurement": "solubility", "setting": "[1]; [5]", "value": 0.053, "unit": "mg/mL"}, {"measurement": "inhibition rate of rat NGF-induced vascular hyper permeability", "setting": "[2]; [6]", "value": "about 97%"}, {"measurement": "percent improvement (right hind limb weight load ratio)", "setting": "[3]; [7]", "value": "about 61%"}]}, {"smiles": "COc1cccc(C2(O)CCCCC2CN(C)C)c1", "note": "(stereo not drawn) [tramadol, reference compound]", "values": [{"measurement": "percent improvement (right hind limb weight load ratio)", "setting": "[3]; tramadol 10 mg/kg subcutaneous one hour before measurement", "value": 43, "unit": "%"}]}, {"smiles": "CS(=O)(=O)c1ccc(C(F)(F)F)cc1NC(=O)Nc1cnc(Oc2ccc(-c3cc(Cl)cnc3N)cc2)nc1.Cl", "note": "[hydrochloride of Compound (I), 1-{2-[4-(2-amino-5-chloro-3-pyridinyl)phenoxy]-5-pyrimidinyl}-3-[2-(methylsulfonyl)-5-(trifluoromethyl)phenyl]urea Hydrochloride]", "values": [{"measurement": "inhibition rate of rat NGF-induced vascular hyper permeability", "setting": "[2]; [6]", "value": "about 100%"}, {"measurement": "percent improvement (right hind limb weight load ratio)", "setting": "[3]; [7]", "value": "about 54%"}]}, {"smiles": "Nc1ncc(F)cc1-c1ccc(Oc2ncc(NC(=O)Nc3cc(C(F)(F)F)ccc3-c3cccnc3)cn2)cc1", "note": "[di(p-toluenesulfonate) of Compound (II), 1-{2-[4-(2-amino-5-fluoropyridin-3-yl)phenoxy]pyrimidin-5-yl}-3-[2-(pyridin-3-yl)-5-(trifluoromethyl)phenyl]urea di(p-toluenesulfonate)]", "values": [{"measurement": "solubility", "setting": "[1]; as the substance itself (salt or free base), di(p-toluenesulfonate)", "value": 0.099, "unit": "mg/mL"}, {"measurement": "solubility at 0.25 h", "setting": "[1]; [8]", "value": 0.061, "unit": "mg/mL"}, {"measurement": "inhibition rate of rat NGF-induced vascular hyper permeability", "setting": "[2]; 12 hours before administration of NGF", "value": "about 78%"}, {"measurement": "percent improvement (right hind limb weight load ratio)", "setting": "[3]; [7]", "value": "about 53%"}]}, {"smiles": "CS(=O)(=O)c1ccc(C(F)(F)F)cc1NC(=O)Nc1cnc(Oc2ccc(-c3cc(Cl)cnc3N)cc2)nc1", "note": "[methanesulfonate of Compound (I), 1-{2-[4-(2-amino-5-chloro-3-pyridinyl)phenoxy]-5-pyrimidinyl}-3-[2-(methylsulfonyl)-5-(trifluoromethyl)phenyl]urea Methanesulfonate]", "values": [{"measurement": "solubility per free base", "setting": "[1]; [4]", "value": 0.047, "unit": "mg/mL"}, {"measurement": "solubility", "setting": "[1]; [5]", "value": 0.055, "unit": "mg/mL"}]}, {"smiles": "CN1CC[C@]23c4c5ccc(O)c4O[C@H]2[C@@H](O)C=C[C@H]3[C@H]1C5", "note": "[morphine, reference compound]", "values": [{"measurement": "percent improvement (right hind limb weight load ratio)", "setting": "[3]; morphine 3 mg/kg subcutaneous one hour before measurement", "value": 54, "unit": "%"}]}, {"smiles": "Nc1ncc(F)cc1-c1ccc(Oc2ncc(NC(=O)Nc3cc(C(F)(F)F)ccc3-c3cccnc3)cn2)cc1", "note": "[dibenzenesulfonate of Compound (II), 1-{2-[4-(2-amino-5-fluoropyridin-3-yl)phenoxy]pyrimidin-5-yl}-3-[2-(pyridin-3-yl)-5-(trifluoromethyl)phenyl]urea dibenzenesulfonate]", "values": [{"measurement": "solubility per free base", "setting": "[1]; FaSSIF, salt value converted to the corresponding free base, dibenzenesulfonate", "value": 0.052, "unit": "mg/mL"}, {"measurement": "solubility", "setting": "[1]; as the substance itself (salt or free base), dibenzenesulfonate", "value": 0.081, "unit": "mg/mL"}]}, {"smiles": "CS(=O)(=O)c1ccc(C(F)(F)F)cc1NC(=O)Nc1cnc(Oc2ccc(-c3cc(Cl)cnc3N)cc2)nc1", "note": "[p-toluenesulfonate of Compound (I), 1-{2-[4-(2-amino-5-chloro-3-pyridinyl)phenoxy]-5-pyrimidinyl}-3-[2-(methylsulfonyl)-5-(trifluoromethyl)phenyl]urea p-toluenesulfonate]", "values": [{"measurement": "solubility", "setting": "[1]; as the substance itself (salt or free base), p-toluenesulfonate", "value": 0.096, "unit": "mg/mL"}, {"measurement": "solubility at 0.25 h", "setting": "[1]; [8]", "value": 0.074, "unit": "mg/mL"}]}, {"smiles": "Nc1ncc(Cl)cc1-c1ccc(Oc2ncc(NC(=O)Nc3cc(C(F)(F)F)ccc3-n3cccn3)cn2)cc1", "note": "[p-toluenesulfonate of Compound (III), 1-(2-(1H-pyrazol-1-yl)-5-(trifluoromethyl)phenyl)-3-(2-(4-(2-amino-5-chloropyridin-3-yl)phenoxy)pyrimidin-5-yl)urea p-Toluenesulfonate]", "values": [{"measurement": "solubility at 0.25 h", "setting": "[1]; [8]", "value": 0.042, "unit": "mg/mL"}, {"measurement": "solubility at 0.25 h", "setting": "[1]; as the substance itself (salt or free base), read-out: solubility", "value": 0.055, "unit": "mg/mL"}]}]}
